Measured values reported in patent publication US20230092359A1, “GEMFIBROZIL FORMULATION” (Polaryx Therapeutics, Inc., priority 2020, published 2023).
Like-named read-outs stand apart in the source and are kept apart here.

Tests used:
[1] = equivalent to 100 mg free form in 250 ml pH 7.3 artificial saliva, 37° C., 50 RPM
Procedure: Dissolution experiments using the salt forms of gemfibrozil were performed using a VanKel VK7010 dissolution apparatus equipped with a VK750D heater/circulator. The 2 paddle method was used. Dissolution medium was 250 mL of artificial saliva, pH 7.30. The temperature was maintained at 37° C. The paddles were rotated at 50 RPM. […] Samples aliquots of 2 mL were taken at 5, 10, and 15 minutes and filtered immediately using a […] Nylon membrane syringe filter. Samples were analyzed by HPLC.

[2] = Dynamic vapor sorption (DVS); assay type: physicochemical; set-up: key to Hysteresis: % change in weight (DVS sorption/desorption); details: for Hysteresis: in % (unit assumed); for state of post-DVS sample: after sorption/desorption cycle 5%-95%-5% relative humidity; for Desorp Mass Change: desorption; for gained moisture retained: following desorption from 95% to 5% relative humidity; for Sorp Mass Change: sorption
Text: In an embodiment, ethanolamine gemfibrozil salt Form A has a low hygroscopicity below approximately 55% relative humidity, meaning less than 0.5% increases in weight below approximately 55% relative humidity, which may be determined using dynamic vapor sorption (DVS) to detect changes in weight of the salt in response to changes in relative humidity. […] Table 6 lists the percent change in weight of ethanolamine gemfibrozil salt Form A (Sorp Mass Change (%)) in 10% relative humidity increments from its initial weight at 5% relative humidity to its weight at 95% relative humidity.
Dynamic Vapor Sorption (DVS)—Moisture sorption/desorption data were collected on a SMS Intrinsic Dynamic Vapor Sorption Analyzer. Sodium chloride and PVP were used as calibration standard. Samples were not dried prior to analysis. Sorption and desorption data were collected over a range from 5% to 95% relative humidity at 10% relative humidity increments under a nitrogen purge. The equilibrium criterion used for analysis was less than 0.0100% weight change in 5 minutes with a maximum equilibration time of 3 hours. Data were not corrected for the initial moisture content of the samples.

[3] = Thermogravimetric analysis (TGA); assay type: physicochemical
Procedure: Thermogravimetric Analysis (TGA)—TG analysis was performed using a Mettler-Toledo TGA/DSC3+ analyzer. Temperature and enthalpy adjustments were performed using indium, tin, and zinc, and then verified with indium. The balance was verified with calcium oxalate. The sample was placed in an open aluminum pan. The pan was hermetically sealed, the lid pierced, then inserted into the TG furnace. A weighed aluminum pan configured as the sample pan was placed on the reference platform. The furnace was heated under nitrogen. The data acquisition parameters for the thermogram are determined.

[4] = XRPD form check after humidity stress; assay type: physicochemical
Text: In an example, an L-arginine gemfibrozil salt was stressed for one day at 75% relative humidity.
The observed peaks of the post-DVS salt were consistent with the pattern of peaks observed for an L-lysine gemfibrozil salt Material A prepared prior to exposure to increased relative humidities (FIG. 15).
X-Ray Powder Diffraction (XRPD)—XRPD patterns were collected with a PANalytical X'Pert PRO MPD or PANalytical Empyrean diffractometers using an incident beam of Cu radiation produced using an Optix long, fine-focus source. An elliptically graded multilayer mirror was used to focus Cu Kα X-rays through the specimen and onto the detector. Prior to analysis, a silicon specimen (NIST SRM 640e) was analyzed to verify the observed position of the Si 111 peak is consistent with the NIST-certified position. A specimen of the sample was sandwiched between 3 μm thick films and analyzed in transmission geometry. A beam-stop, short antiscatter extension, and antiscatter knife edge were used to minimize the background generated by air. Soller slits for the incident and diffracted beams were used to minimize broadening from axial divergence. Diffraction patterns were collected using a scanning position-sensitive detector (X'Celerator) located […] from the specimen and Data Collector software v. 5.5.

[5] = sorption from 5% to 85% relative humidity
[6] = sorption from 85% to 95% relative humidity
[7] = equilibrium, 1.5 ml pH 7.3 artificial saliva, 16 hours

Row | SMILES | Average % Gemfibrozil dissolved ([1]; 5 min) [%] | Average % Gemfibrozil dissolved ([1]; 10 min) [%] | Average % Gemfibrozil dissolved ([1]; 15 min) [%] | Hysteresis ([2]; Target RH 15.0%) | Hysteresis ([2]; Target RH 25.0%) | Hysteresis ([2]; Target RH 35.0%) | Hysteresis ([2]; Target RH 45.0%) | Hysteresis ([2]; Target RH 55.0%) | Hysteresis ([2]; Target RH 65.0%) | Hysteresis ([2]; Target RH 75.0%) | Hysteresis ([2]; Target RH 85.0%) | state of post-DVS sample [2] | Desorp Mass Change ([2]; Target RH 5.0%) [%] | Desorp Mass Change ([2]; Target RH 15.0%) [%] | Desorp Mass Change ([2]; Target RH 25.0%) [%] | Desorp Mass Change ([2]; Target RH 35.0%) [%] | Desorp Mass Change ([2]; Target RH 45.0%) [%] | Desorp Mass Change ([2]; Target RH 55.0%) [%] | Desorp Mass Change ([2]; Target RH 65.0%) [%] | Desorp Mass Change ([2]; Target RH 75.0%) [%] | other results
1 | Cc1ccc(C)c(OCCCC(C)(C)C(=O)O)c1.N=C(N)NCCCC(N)C(=O)O [Arginine Material A] | 96.64 | 94.40 | 94.27 | 6.09 | 6.79 | 7.73 | 9.27 | 11.46 | 14.60 | 18.97 | 25.96 | deliquesced | 5.55 | 6.12 | 6.85 | 7.89 | 9.51 | 11.75 | 14.95 | 19.47 | Average % Gemfibrozil dissolved ([1]; 5 min, listed as L-arginine gemfibrozil salt Material A): 96.6%; Desorp Mass Change ([2]; Target RH 85.0%): 26.79%; Desorp Mass Change ([2]; Target RH 95.0%): 45.96%; gained moisture retained [2]: approximately 5.6%; percent increase in mass [2, 5]: approximately 0.8%; percent change in mass [2, 6]: 45.1%; Sorp Mass Change ([2]; Target RH 5.0%): 0.00%; Sorp Mass Change ([2]; Target RH 15.0%): 0.03%; Sorp Mass Change ([2]; Target RH 25.0%): 0.06%; Sorp Mass Change ([2]; Target RH 35.0%): 0.16%; Sorp Mass Change ([2]; Target RH 45.0%): 0.25%; Sorp Mass Change ([2]; Target RH 55.0%): 0.28%; Sorp Mass Change ([2]; Target RH 65.0%): 0.35%; Sorp Mass Change ([2]; Target RH 75.0%): 0.50%; Sorp Mass Change ([2]; Target RH 85.0%): 0.83%; Sorp Mass Change ([2]; Target RH 95.0%): 45.96%; temperature until which weight does not decrease (may be the onset of decomposition) [3]: approximately 207 °C; weight loss ([3]; between 44° C. and 125° C.): approximately 0.1%; form change by XRPD ([4]; stressed for one day at 75% relative humidity): did not undergo a form change; Observations [7]: No excess solids
2 | Cc1ccc(C)c(OCCCC(C)(C)C(=O)O)c1.NCCO [Ethanolamine Form A] | 97.30 | 94.80 | 95.84 | 2.60 | 3.56 | 4.87 | 6.67 | 9.19 | 1.78 | 0.64 | 4.16 | deliquesced | 1.92 | 2.60 | 3.56 | 4.88 | 6.70 | 9.29 | 12.93 | 18.56 | Average % Gemfibrozil dissolved ([1]; 5 min, listed as ethanolamine gemfibrozil salt Form A): 97.3%; Desorp Mass Change ([2]; Target RH 85.0%): 31.49%; Desorp Mass Change ([2]; Target RH 95.0%): 45.05%; gained moisture retained [2]: approximately 2%; percent increase in mass ([2]; sorption from 5% to 55% relative humidity): approximately 0.1%; percent change in mass ([2]; sorption from 55% to 95% relative humidity): 44.9%; Sorp Mass Change ([2]; Target RH 5.0%): 0.00%; Sorp Mass Change ([2]; Target RH 15.0%): 0.00%; Sorp Mass Change ([2]; Target RH 25.0%): 0.00%; Sorp Mass Change ([2]; Target RH 35.0%): 0.01%; Sorp Mass Change ([2]; Target RH 45.0%): 0.03%; Sorp Mass Change ([2]; Target RH 55.0%): 0.10%; Sorp Mass Change ([2]; Target RH 65.0%): 11.14%; Sorp Mass Change ([2]; Target RH 75.0%): 17.93%; Sorp Mass Change ([2]; Target RH 85.0%): 27.33%; Sorp Mass Change ([2]; Target RH 95.0%): 45.05%; temperature until which weight does not decrease (may be the onset of decomposition) [3]: approximately 140 °C; Observations (pH 7.3): No excess solids
3 | Cc1ccc(C)c(OCCCC(C)(C)C(=O)O)c1.NCCCCC(N)C(=O)O [Lysine Material A] | 96.29 | 93.51 | 94.67 | 2.48 | 3.61 | 2.69 | 2.54 | 2.30 | 2.09 | 3.16 | 13.47 | deliquesced | 2.09 | 2.53 | 2.81 | 3.09 | 3.45 | 4.09 | 5.25 | 9.49 | Average % Gemfibrozil dissolved ([1]; 5 min, listed as L-lysine gemfibrozil salt Material A): 96.3%; Desorp Mass Change ([2]; Target RH 85.0%): 27.95%; Desorp Mass Change ([2]; Target RH 95.0%): 38.97%; gained moisture retained [2]: approximately 2.1%; percent increase in mass ([2]; sorption from 5% to 25% relative humidity): approximately 0.2%; percent increase in mass [2, 5]: approximately 14.5%; percent change in mass [2, 6]: approximately 24.5%; Sorp Mass Change ([2]; Target RH 5.0%): 0.00%; Sorp Mass Change ([2]; Target RH 15.0%): 0.04%; Sorp Mass Change ([2]; Target RH 25.0%): 0.19%; Sorp Mass Change ([2]; Target RH 35.0%): 0.40%; Sorp Mass Change ([2]; Target RH 45.0%): 0.91%; Sorp Mass Change ([2]; Target RH 55.0%): 1.79%; Sorp Mass Change ([2]; Target RH 65.0%): 3.15%; Sorp Mass Change ([2]; Target RH 75.0%): 6.32%; Sorp Mass Change ([2]; Target RH 85.0%): 14.48%; Sorp Mass Change ([2]; Target RH 95.0%): 38.97%; temperature until which weight does not decrease (may be the onset of decomposition) [3]: approximately 165 °C; form change by XRPD ([4]; post-DVS sample, exposure to increased relative humidity): did not undergo a form change; Observations [7]: No excess solids
